Assays:
HL60 cells [1] = assay: Proliferation of HL60 cells, free or fixed to hospicells, after exposure to AraC or DNR; assay type: cell-based, human; settings: for living HL60 cells fixed to the hospicells during treatment / living free HL60 cells during treatment: 5 days' treatment; for living HL60 cells fixed to the hospicells during treatment / living HL60 cells on hospicells after the treatment is stopped: HL60 fixed to hospicells; for living HL60 cells on hospicells after the treatment is stopped / growth of free HL60 cells after the treatment is stopped: drug removed, fresh medium
Method: (§1) HL60 cells cultured with hospicells in RPMI medium were treated for 5 days with either aracytin (AraC) or daunorubicin (DNR).
After 5 days' treatment, the drug was removed and the cells were cultured again in fresh medium.
The number of living HL60 cells was measured throughout the experiment using the image analysis system.

hospicells = assay: Toxicity of the drug for hospicells in HL60/hospicell co-culture; assay type: cell-based
Method: as §1
This effect of “regrowth” of the cells is greater with aracytin than with daunorubicin, the difference being linked to the toxicity of daunorubicin for the hospicells.

OVCAR3 cells = assay: Chemoresistance of OVCAR3 cells co-cultured with hospicells (SRB assay); assay type: cell-based; settings: verapamil 1.4 μM added, in the presence of carboplatin and paclitaxel
Method: Briefly, the hospicells were cultivated to 60% confluence. 2·10^4 OVCAR3 cells expressing GFP were then co-cultivated with the hospicells for 24 hours before being brought into contact with a chemotherapeutic agent (carboplatin 22.2 μM and paclitaxel 1.4 μM). The chemotherapeutic effect was determined with the aid of a quantitative colorimetric assay with sulforhodamine B (SRB) as described by Skehan et al. (1990) J. Natl. Cancer Inst. 82:1107-1112. The pink colour of the SRB was quantified by measuring the absorbance at 540 nm. For each condition, the mean cell density and the standard deviation were calculated from the data obtained for 6 wells. The experiments were repeated 3 times.
The role of the MDR proteins in the chemoresistance imparted by the hospicells was confirmed by repeating the above co-culture experiments of hospicells and OVCAR3 cells in the presence of carboplatin and paclitaxel, and adding to the culture medium verapamil (1.4 μM), an MDR1 protein inhibitor.

HL60 cells [2] = assay: Adhesion of HL60 cells to hospicells; assay type: cell-based, human; settings: HL60 incubated beforehand with agent; tumour cells/hospicells 5/1; 24 hours at 37° C.
Method: HL60 cells were incubated in RPMI medium under […]: • HL60 cells alone (control) • HL60 cells+anti-arrestin antibody (control antibody) • HL60 cells+RGD (Arg-Gly-Asp, integrin consensus sequence, which partially prevents integrin dependent adhesion) • HL60 cells+anti-CD11a antibody • HL60 cells+anti-CD49d antibody • HL60 cells+anti-CD11a antibody+anti-CD49d antibody • HL60 cells+anti-CD11a antibody+anti-CD49d antibody+RGD
For each condition, HL60 cells were deposited separately and in identical amounts in 6 different wells containing complete RPMI medium and fixing cells which had adhered to the support. The ratio between tumour cells and hospicells was 5/1. After incubation for 24 hours at 37° C., the HL60 cells that had not adhered were recovered and counted. The percentage of HL60 cells adhering to the hospicells was then calculated for each condition.

Compound | living HL60 cells fixed to the hospicells during treatment (HL60 cells [1]) | living HL60 cells on hospicells after the treatment is stopped (HL60 cells [1]) | effect of regrowth of the HL60 cells on hospicells, aracytin compared with daunorubicin (HL60 cells [1]; after the treatment is stopped) | living free HL60 cells during treatment (HL60 cells [1]) | growth of free HL60 cells after the treatment is stopped (HL60 cells [1]) | toxicity for the hospicells (hospicells) | chemoresistance imparted by the hospicells to the OVCAR3 cells (OVCAR3 cells) | adhesion of the HL60 cells to the hospicells (HL60 cells [2])
Nc1ccn([C@@H]2O[C@H](CO)[C@@H](O)[C@@H]2O)c(=O)n1 [AraC, aracytin] | no longer detectable | living HL60 cells are identifiable | greater | die | do not grow | – | – | –
COc1cccc2c1C(=O)c1c(O)c3c(c(O)c1C2=O)C[C@@](O)(C(C)=O)C[C@@H]3O[C@H]1C[C@H](N)[C@H](O)[C@H](C)O1 [DNR, daunorubicin] | no longer detectable | living HL60 cells are identifiable | – | die | do not grow | toxicity | – | –
COc1ccc(CCN(C)CCCC(C#N)(c2ccc(OC)c(OC)c2)C(C)C)cc1OC (stereo not drawn) [verapamil] | – | – | – | – | – | – | dramatically reduces | –
Arg-Gly-Asp [RGD] | – | – | – | – | – | – | – | partially blocks
